Key:
[1] = target: VMAT2 (human platelet homogenate) (Homo sapiens (Human), UniProt Q05940); assay: Human VMAT2 Ki, slightly modified competition binding procedure (Table 11); details: 10 nM 3H-dihydrotetrabenazine;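 further: competition binding with 90 min incubation at 25 °C, after which filter-retained radioligand was measured by scintillation counting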
Protocol: Following incubation at 25° C. for 90 minutes, bound radioligand was collected by rapid filtration onto GF/B glass fiber filters using a Unifilter-96 Harvester (PerkinElmer). Filter plates were pre-treated with 0.1% polyethylenimine and allowed to dry overnight, and following harvesting the filter plates were washed with 800 d VMAT2 binding buffer. Bound radioligand was quantified by scintillation counting using a Topcount NXT (PerkinElmer).

[2] = In vitro human intestinal S9 hydrolysis assay (formation of compound 1-1); details: human intestinal S9, 1 uM, 37° C., up to 60 minutes
Protocol: Compounds (1 uM) were incubated with pooled intestinal S9 subcellular preparations (0.5 mg/mL total protein) from SD rats and humans without the addition of protease inhibitor phenylmethylsulfonylflouride. Incubations were carried out in a potassium phosphate buffer (50 mM). All concentrations were relative to the final incubation volume of 125 uL. Incubations were conducted at 37° C. for 0, 5, 10, 20, 40 and 60 minutes in a water bath and terminated by rapid mixing with 150 uL of ice-cold acetonitrile containing 1% formic acid. Internal standard was added and proteins were precipitated and removed by centrifugation prior to LC/MS analysis.

VMAT2 (human platelet homogenate), sequence (Q05940 whole entry): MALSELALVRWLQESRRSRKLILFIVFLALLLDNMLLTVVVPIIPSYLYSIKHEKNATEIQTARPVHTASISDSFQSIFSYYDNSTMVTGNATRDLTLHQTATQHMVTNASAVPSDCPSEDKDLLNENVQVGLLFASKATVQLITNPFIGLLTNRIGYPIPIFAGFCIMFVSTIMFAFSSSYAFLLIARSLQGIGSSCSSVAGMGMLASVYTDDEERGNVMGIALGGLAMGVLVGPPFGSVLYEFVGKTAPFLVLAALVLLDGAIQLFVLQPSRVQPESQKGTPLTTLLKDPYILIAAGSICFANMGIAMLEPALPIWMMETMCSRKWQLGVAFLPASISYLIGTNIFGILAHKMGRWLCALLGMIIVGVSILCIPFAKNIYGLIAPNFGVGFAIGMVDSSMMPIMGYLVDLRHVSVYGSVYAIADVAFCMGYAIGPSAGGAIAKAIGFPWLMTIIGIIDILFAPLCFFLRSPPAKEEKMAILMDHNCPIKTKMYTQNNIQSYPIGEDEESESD

SMILES	Ki [1] [nM]	S9 Assay (ability to form compound 1-1) [2]
COc1cc2c(cc1OC)[C@H]1C[C@@H](COC(=O)CC(C)(C)CC(=O)O)[C@H](CC(C)C)CN1CC2 [Compound 3-1, 5-{[(2R,3S,11bR)-9,10-dimethoxy-3-(2-methylpropyl)-1H,2H,3H,4H,6H,7H,11bH-pyrido[2,1-a]isoquinolin-2-yl]methoxy}-3,3-dimethyl-5-oxopentanoic acid]	> 500	+
COc1cc2c(cc1OC)[C@H]1C[C@@H](COC(=O)N(C)C)[C@H](CC(C)C)CN1CC2 [Compound 5-29, [(2R,3S,11bR)-9,10-dimethoxy-3-(2-methylpropyl)-1H,2H,3H,4H,6H,7H,11bH-pyrido[2,1-a]isoquinolin-2-yl]methyl N,N-dimethylcarbamate]	10 to 500	–
COc1cc2c(cc1OC)[C@H]1C[C@@H](COC(=O)N[C@@H]3CCCC[C@H]3C(=O)O)[C@H](CC(C)C)CN1CC2 [Compound 5-35, (1R,2R)-2-[({[(2R,3S,11bR)-9,10-dimethoxy-3-(2-methylpropyl)-1H,2H,3H,4H,6H,7H,11bH-pyrido[2,1-a]isoquinolin-2-yl]methoxy}carbonyl)amino]cyclohexane-1-carboxylic acid]	10 to 500	–
COc1cc2c(cc1OC)[C@H]1C[C@@H](COC(=O)N[C@H](C)C(=O)O)[C@H](CC(C)C)CN1CC2 [Compound 5-45, (2R)-2-[({[(2R,3S,11bR)-9,10-dimethoxy-3-(2-methylpropyl)-1H,2H,3H,4H,6H,7H,11bH-pyrido[2,1-a]isoquinolin-2-yl]methoxy}carbonyl)amino]propanoic acid]	> 500	–
COc1cc2c(cc1OC)[C@H]1C[C@@H](COC(=O)N3C[C@@H](C)O[C@@H](C)C3)[C@H](CC(C)C)CN1CC2 [Compound 5-53, [(2R,3S,11bR)-9,10-dimethoxy-3-(2-methylpropyl)-1H,2H,3H,4H,6H,7H,11bH-pyrido[2,1-a]isoquinolin-2-yl]methyl (2R,6S)-2,6-dimethylmorpholine-4-carboxylate]	10 to 500	–
COc1cc2c(cc1OC)[C@H]1C[C@@H](COC(=O)N3CCNC[C@H]3C)[C@H](CC(C)C)CN1CC2 [Compound 6-3, [(2R,3S,11bR)-9,10-dimethoxy-3-(2-methylpropyl)-1H,2H,3H,4H,6H,7H,11bH-pyrido[2,1-a]isoquinolin-2-yl]methyl (2R)-2-methylpiperazine-1-carboxylate]	–	+
COc1cc2c(cc1OC)[C@H]1C[C@@H](COC(=O)OC(C)C)[C@H](CC(C)C)CN1CC2 [Compound 8-1, [(2R,3S,11bR)-9,10-dimethoxy-3-(2-methylpropyl)-1H,2H,3H,4H,6H,7H,11bH-pyrido[2,1-a]isoquinolin-2-yl]methyl propan-2-yl carbonate]	10 to 500	–
COc1cc2c(cc1OC)[C@H]1C[C@@H](COCC(=O)c3ccc(F)cc3)[C@H](CC(C)C)CN1CC2 [Compound 9-3, 2-{[(2R,3S,11bR)-9,l0-dimethoxy-3-(2-methylpropyl)-1H,2H,3H,4H,6H,7H,11bH-pyrido[2,1-a]isoquinolin-2-yl]methoxy}-1-(4-fluorophenyl)ethan-1-one]	> 500	–
CCOC[C@@H]1C[C@@H]2c3cc(OC)c(OC)cc3CCN2C[C@H]1CC(C)C [Compound 9-8, (2R,3S,11bR)-2-(ethoxymethyl)-9,10-dimethoxy-3-(2-methylpropyl)-1H,2H,3H,4H,6H,7H,11bH-pyrido[2,1-a]isoquinoline]	< 10	–
COc1cc2c(cc1OC)[C@H]1C[C@@H](COCCC3CCNCC3)[C@H](CC(C)C)CN1CC2 [Compound 10-1, 4-(2-{[(2R,3S,11bR)-9,10-dimethoxy-3-(2-methylpropyl)-1H,2H,3H,4H,6H,7H,11bH-pyrido[2,1-a]isoquinolin-2-yl]methoxy}ethyl)piperidine]	< 10	–
COc1cc2c(cc1OC)[C@H]1C[C@@H](COC[C@@H]3CCNC3)[C@H](CC(C)C)CN1CC2 [Compound 10-2, (3R)-3-({[(2R,3S,11bR)-9,10-dimethoxy-3-(2-methylpropyl)-1H,2H,3H,4H,6H,7H,11bH-pyrido[2,1-a]isoquinolin-2-yl]methoxy}methyl)pyrrolidine]	< 10	–
CCCCCCOCC1CC2c3cc(OC)c(OC)cc3CCN2CC1CC(C)C (stereo not shown) [Compound 10-3, 2-[(hexyloxy)methyl]-9,10-dimethoxy-3-(2-methylpropyl)-1H,2H,3H,4H,6H,7H,11bH-pyrido[2,1-a]isoquinoline]	10 to 500	–
COc1cc2c(cc1OC)[C@H]1C[C@@H](COC[C@@H]3CCCN3)[C@H](CC(C)C)CN1CC2 [Compound 10-4, (2S)-2-({[(2R,3S,11bR)-9,10-dimethoxy-3-(2-methylpropyl)-1H,2H,3H,4H,6H,7H,11bH-pyrido[2,1-a]isoquinolin-2-yl]methoxy}methyl)pyrrolidine]	< 10	–
COc1cc2c(cc1OC)[C@H]1C[C@@H](COCC3CCNCC3)[C@H](CC(C)C)CN1CC2 [Compound 10-5, 4-({[(2R,3S,11bR)-9,10-dimethoxy-3-(2-methylpropyl)-1H,2H,3H,4H,6H,7H,11bH-pyrido[2,1-a]isoquinolin-2-yl]methoxy}methyl)piperidine]	10 to 500	–
COc1cc2c(cc1OC)[C@H]1C[C@@H](COCC3CCNC3)[C@H](CC(C)C)CN1CC2 (stereo partly drawn) [Compound 10-6, 3-({[(2R,3S,11bR)-9,10-dimethoxy-3-(2-methylpropyl)-1H,2H,3H,4H,6H,7H,11bH-pyrido[2,1-a]isoquinolin-2-yl]methoxy}methyl)pyrrolidine]	< 10	–
COc1cc2c(cc1OC)[C@H]1C[C@@H](COC[C@H]3CCCN3)[C@H](CC(C)C)CN1CC2 [Compound 10-7, (2R)-2-({[(2R,3S,11bR)-9,10-dimethoxy-3-(2-methylpropyl)-1H,2H,3H,4H,6H,7H,11bH-pyrido[2,1-a]isoquinolin-2-yl]methoxy}methyl)pyrrolidine]	< 10	–

Now from value to compound:

Ki [1] [nM]	S9 Assay (ability to form compound 1-1) [2]	SMILES
< 10	+++	COc1cc2c(cc1OC)[C@H]1C[C@@H](COC(=O)CC3CCN(C)C3)[C@H](CC(C)C)CN1CC2 (stereo partly drawn) [Compound 2-10, [(2R,3S,11bR)-9,10-dimethoxy-3-(2-methylpropyl)-1H,2H,3H,4H,6H,7H,11bH-pyrido[2,1-a]isoquinolin-2-yl]methyl 2-(1-methylpyrrolidin-3-yl)acetate]
< 10	+++	COc1cc2c(cc1OC)[C@H]1C[C@@H](COC(=O)C3CCN(C)CC3)[C@H](CC(C)C)CN1CC2 [Compound 2-25, [(2R,3S,11bR)-9,10-dimethoxy-3-(2-methylpropyl)-1H,2H,3H,4H,6H,7H,11bH-pyrido[2,1-a]isoquinolin-2-yl]methyl 1-methylpiperidine-4-carboxylate]
< 10	–	COc1cc2c(cc1OC)[C@H]1C[C@@H](COC(=O)N3CCN(C(C)C)CC3)[C@H](CC(C)C)CN1CC2 [Compound 5-31, [(2R,3S,11bR)-9,10-dimethoxy-3-(2-methylpropyl)-1H,2H,3H,4H,6H,7H,11bH-pyrido[2,1-a]isoquinolin-2-yl]methyl 4-(propan-2-yl)piperazine-1-carboxylate]
< 10	–	COc1cc2c(cc1OC)[C@H]1C[C@@H](COC(=O)N3CCO[C@H](C)C3)[C@H](CC(C)C)CN1CC2 [Compound 5-37, [(2R,3S,11bR)-9,10-dimethoxy-3-(2-methylpropyl)-1H,2H,3H,4H,6H,7H,11bH-pyrido[2,1-a]isoquinolin-2-yl]methyl (2R)-2-methylmorpholine-4-carboxylate]
< 10	–	COc1cc2c(cc1OC)[C@H]1C[C@@H](COC(=O)N3CCO[C@@H](C)C3)[C@H](CC(C)C)CN1CC2 [Compound 5-44, [(2R,3S,11bR)-9,10-dimethoxy-3-(2-methylpropyl)-1H,2H,3H,4H,6H,7H,11bH-pyrido[2,1-a]isoquinolin-2-yl]methyl (2S)-2-methylmorpholine-4-carboxylate]
< 10	–	COc1cc2c(cc1OC)[C@H]1C[C@@H](COC(=O)N3CCN4CCCCCC4C3)[C@H](CC(C)C)CN1CC2 (stereo partly drawn) [Compound 5-48, [(2R,3S,11bR)-9,10-dimethoxy-3-(2-methylpropyl)-1H,2H,3H,4H,6H,7H,11bH-pyrido[2,1-a]isoquinolin-2-yl]methyl decahydropiperazino[1,2-a]azepine-2-carboxylate]
< 10	–	COc1cc2c(cc1OC)[C@H]1C[C@@H](COC(=O)N3CCN(C)C[C@H]3C)[C@H](CC(C)C)CN1CC2 [Compound 5-50, [(2R,3S,11bR)-9,10-dimethoxy-3-(2-methylpropyl)-1H,2H,3H,4H,6H,7H,11bH-pyrido[2,1-a]isoquinolin-2-yl]methyl (2R)-2,4-dimethylpiperazine-1-carboxylate]
< 10	–	COc1cc2c(cc1OC)[C@H]1C[C@@H](COC(=O)N3C[C@H](C)NC[C@H]3C)[C@H](CC(C)C)CN1CC2 [Compound 6-2, [(2R,3S,11bR)-9,10-dimethoxy-3-(2-methylpropyl)-1H,2H,3H,4H,6H,7H,11bH-pyrido[2,1-a]isoquinolin-2-yl]methyl (2R,5S)-2,5-dimethylpiperazine-1-carboxylate]
< 10	–	COc1cc2c(cc1OC)[C@H]1C[C@@H](COC(=O)N3CCN[C@H](C#N)C3)[C@H](CC(C)C)CN1CC2 [Compound 6-9, [(2R,3S,11bR)-9,10-dimethoxy-3-(2-methylpropyl)-1H,2H,3H,4H,6H,7H,11bH-pyrido[2,1-a]isoquinolin-2-yl]methyl (3S)-3-cyanopiperazine-1-carboxylate]
< 10	–	COc1cc2c(cc1OC)[C@H]1C[C@@H](COC(=O)N3CC(C)NCC3C)[C@H](CC(C)C)CN1CC2 (stereo partly drawn) [Compound 6-14, [(2R,3S,11bR)-9,10-dimethoxy-3-(2-methylpropyl)-1H,2H,3H,4H,6H,7H,11bH-pyrido[2,1-a]isoquinolin-2-yl]methyl 2,5-dimethylpiperazine-1-carboxylate]
< 10	–	COC[C@@H]1C[C@@H]2c3cc(OC)c(OC)cc3CCN2C[C@H]1CC(C)C [Compound 9-1, (2R,3S,11bR)-9,10-dimethoxy-2-(methoxymethyl)-3-(2-methylpropyl)-1H,2H,3H,4H,6H,7H,11bH-pyrido[2,1-a]isoquinoline]
< 10	–	COCOC[C@@H]1C[C@@H]2c3cc(OC)c(OC)cc3CCN2C[C@H]1CC(C)C [Compound 9-5, (2R,3S,11bR)-9,10-dimethoxy-2-[(methoxymethoxy)methyl]-3-(2-methylpropyl)-1H,2H,3H,4H,6H,7H,11bH-pyrido[2,1-a]isoquinoline]

From US11053242B2, “[9,10-dimethoxy-3-(2-methylpropyl)-1H,2H,3H,4H,6H,7H,11BH-pyrido-[2,1-a]isoquinolin-2-yl]methanol and compounds, compositions and methods relating thereto” (Neurocrine Biosciences, Inc., priority 2015, dated 2021)
